Experiments:
Kuramochi cells = assay: IncuCyte Kuramochi Assay (cell proliferation); assay type: cell-based; settings: 72 h, Kuramochi cells labeled with mApple-H2B, cell count, read-out: IncuCyte - Kuramochi RB-WT: IC50
Method in brief: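 Cells imaged at 0 and 72 h after compound treatment (10 points, ½ log dilution, 20 μM top), with fluorescent nuclei counted. Fold change in count was normalized to DMSO wells and fitted to dose-response curves to give GI50.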

CDK2/Cyclin E1 = target: T1, CDK2/Cyclin E1 (Homo sapiens, UniProt P24941); assay: Caliper Assay (LabChip EZ Reader mobility shift assay), inhibition of CDK2/Cyclin E1 activity; assay type: biochemical; settings: 2.5 nM CDK2/Cyclin E1(14-475), 100 μM ATP, 30 min preincubation; read-out: Caliper Assay (CDK2/CCNE1): IC50
T1 construct: purchased 14-475
Method in brief: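 Compounds were preincubated 30 min with CDK2/Cyclin E1(14-475), then run for 100 min with 2.5 nM enzyme, 100 μM ATP and 1.5 μM 5-FAM-QSPKKG peptide in HEPES pH 7.5 (final). Reactions were EDTA-stopped and substrate-to-product conversion read by mobility shift. IC50 came from a four-parameter fit.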

Row | Structure (SMILES) | IC50 (Kuramochi cells) | IC50 (CDK2/Cyclin E1)
1 | CC(C)(C#N)C(=O)N1CC2(CN(Cc3cnccn3)CC2c2nnc(C(F)(F)c3ccc(Cl)c(Cl)c3)o2)C1 (stereo not drawn) [I-146] | > 10 µM | > 100 µM
2 | CC1(C)C[C@@H]1C(=O)N1CC2(CN(C(=O)c3cnn(Cc4ccccc4)c3)CC2c2ccc(NCc3ccccc3)cc2)C1 (stereo partly drawn) [I-93, (1-benzyl-1H-pyrazol-4-yl)(8-(4-(benzylamino)phenyl)-2-((S)-2,2-dimethylcyclopropane-1-carbonyl)-2,6-diazaspiro[3.4]octan-6-yl)methanone] | 5 to 10 µM | 1 to 10 µM
3 | CC1(C)CC1C(=O)N1CC2(CN(C(=O)c3cncs3)CC2(F)c2nnc(C(F)(F)c3ccc(Cl)c(Cl)c3)o2)C1 (single isomer, unassigned) [I-38 1st] | > 10 µM | > 10 µM
4 | O=C(c1cncs1)N1CC(c2nnc(Cc3ccc(Cl)c(Cl)c3)o2)C2(C1)CN(c1ccccn1)C2 (stereo not drawn) [I-197, (8-(5-(3,4-dichlorobenzyl)-1,3,4-oxadiazol-2-yl)-2-(pyridin-2-yl)-2,6-diazaspiro[3.4]octan-6-yl)(thiazol-5-yl)methanone] | > 10 µM | > 10 µM
5 | O=C(c1[nH]ncc1C(F)(F)F)N1CC(c2nnc(C(F)(F)c3ccc(Cl)c(Cl)c3)o2)C2(C1)CN(C(=O)[C@H]1CC1(F)F)C2 (stereo partly drawn) [I-163] | > 10 µM | > 10 µM
6 | CC1(C)C[C@@H]1C(=O)N1CC2(C1)CN(c1cccc3ncsc13)CC2c1nnc(C(F)(F)c2ccc(Cl)c(Cl)c2)o1 (stereo partly drawn) [I-98, (6-(benzo[d]thiazol-7-yl)-8-(5-((3,4-dichlorophenyl)difluoromethyl)-1,3,4-oxadiazol-2-yl)-2,6-diazaspiro[3.4]octan-2-yl)((S)-2,2-dimethylcyclopropyl)methanone] | > 10 µM | > 10 µM
7 | CC1(C)C[C@@H]1C(=O)N1CC2(CN(C(=O)c3cncs3)CC2c2nnc(Cc3ccc(C4CCOCC4)c(Cl)c3)o2)C1 (stereo partly drawn) [I-31] | > 10 µM | 0.1 to 1 µM
8 | CC(c1coc(C2CCCC2)n1)c1nc(C2CN(C(=O)c3cncs3)CC23CN(C(=O)[C@H]2CC2(C)C)C3)no1 (stereo partly drawn) [I-100] | 5 to 10 µM | 0.1 to 1 µM
9 | CC1(C)C[C@@H]1C(=O)N1CC2(CN(C(=O)c3cnn(Cc4ccccc4)c3)CC2c2cc(NC(=O)C3CC3)on2)C1 (stereo partly drawn) [I-7, N-(3-(6-(1-benzyl-1H-pyrazole-4-carbonyl)-2-((S)-2,2-dimethylcyclopropane-1-carbonyl)-2,6-diazaspiro[3.4]octan-8-yl)isoxazol-5-yl)cyclopropanecarboxamide] | 5 to 10 µM | 0.1 to 1 µM
10 | CC1(C)C[C@@H]1C(=O)N1CC2(CN(C(=O)c3cncs3)CC2c2nnc(Cc3nc(C4CCOCC4)ccc3F)o2)C1 (stereo partly drawn) [I-50, (2-((S)-2,2-dimethylcyclopropane-1-carbonyl)-8-(5-((3-fluoro-6-(tetrahydro-2H-pyran-4-yl)pyridin-2-yl)methyl)-1,3,4-oxadiazol-2-yl)-2,6-diazaspiro[3.4]octan-6-yl)(thiazol-5-yl)methanone] | > 10 µM | 1 to 10 µM
11 | O=C(c1cncs1)N1CC(c2nnc(Cc3ccc(Cl)c(Cl)c3)o2)C2(C1)CN(c1ncc(C(F)(F)F)cn1)C2 (stereo not drawn) [I-47] | > 10 µM | > 10 µM
12 | FC(F)(c1ccc(Cl)c(Cl)c1)c1nnc(C2CN(c3ncnc4ncsc34)CC23CN(c2ncccn2)C3)o1 (stereo not drawn) [I-183, 2-((3,4-dichlorophenyl)difluoromethyl)-5-(2-(pyrimidin-2-yl)-6-(thiazolo[4,5-d]pyrimidin-7-yl)-2,6-diazaspiro[3.4]octan-8-yl)-1,3,4-oxadiazole] | > 10 µM | > 10 µM
13 | CC(c1nnc(C2CN(C(=O)c3cncs3)CC23CN(C(=O)[C@H]2CC2(C)C)C3)o1)n1ccc(C2CCCC2)n1 (stereo partly drawn) [I-96] | > 10 µM | 0.01 to 0.1 µM
14 | CC1(C)C[C@@H]1C(=O)N1CC2(CN(C(=O)c3cncs3)CC2c2cn(Cc3ccc(C(F)(F)F)cc3)nn2)C1 (stereo partly drawn) [I-202] | > 10 µM | > 10 µM
15 | CC1(C)C[C@@H]1C(=O)N1CC2(CN(C(=O)c3cncs3)CC2c2nnc(Cc3cccc(C4CCCCO4)n3)o2)C1 (stereo partly drawn) [I-83] | > 10 µM | 0.1 to 1 µM
16 | CC1(C)C[C@@H]1C(=O)N1CC2(CN(C(=O)c3cncs3)CC2c2nnc(CCc3ccc(Cl)c(Cl)c3)o2)C1 (stereo partly drawn) [I-28] | > 10 µM | 0.1 to 1 µM
17 | Cc1cc(C)n([C@@H](C)c2nc(C3CN(C(=O)c4cnn(Cc5ccccc5)c4)CC34CN(C(=O)[C@H]3CC3(C)C)C4)no2)n1 (stereo partly drawn) [I-21, (1-benzyl-1H-pyrazol-4-yl)(8-(5-(1-(3,5-dimethyl-1H-pyrazol-1-yl)ethyl)-1,2,4-oxadiazol-3-yl)-2-((S)-2,2-dimethylcyclopropane-1-carbonyl)-2,6-diazaspiro[3.4]octan-6-yl)methanone] | > 10 µM | 0.1 to 1 µM
18 | CC(c1cccc(C2CCOCC2)n1)c1nnc(C2CN(C(=O)c3cncs3)CC23CN(C(=O)[C@H]2CC2(C)C)C3)o1 (stereo partly drawn) [I-78] | > 10 µM | 0.1 to 1 µM
19 | Cc1cc(O)nn1C(C)c1nc(C2CN(C(=O)c3cncs3)CC23CN(C(=O)[C@H]2CC2(C)C)C3)no1 (stereo partly drawn) [I-63] | > 10 µM | 1 to 10 µM
20 | C=C(c1ccc(C(F)(F)c2nnc(C3CN(C(=O)c4cncs4)CC34CN(C(=O)[C@H]3CC3(C)C)C4)o2)cc1)C(F)(F)F (stereo partly drawn) [I-198, (8-(5-(difluoro(4-(3,3,3-trifluoroprop-1-en-2-yl)phenyl)methyl)-1,3,4-oxadiazol-2-yl)-2-((S)-2,2-dimethylcyclopropane-1-carbonyl)-2,6-diazaspiro[3.4]octan-6-yl)(thiazol-5-yl)methanone] | 0.5 to 5 µM | 0.01 to 0.1 µM

Row | Structure (SMILES) | IC50 (Kuramochi cells) | IC50 (CDK2/Cyclin E1)
21 | O=C(C#CCO)N1CC(c2nnc(C(F)(F)c3ccc(Cl)c(Cl)c3)o2)C2(C1)CN(C(=O)[C@H]1CC1(F)F)C2 (stereo partly drawn) [I-160] | > 10 µM | > 10 µM
22 | O=C(C1CNC1)N1CC(c2nnc(C(F)(F)c3ccc(Cl)c(Cl)c3)o2)C2(C1)CN(C(=O)[C@H]1CC1(F)F)C2 (stereo partly drawn) [I-147] | > 10 µM | > 100 µM
23 | CC1(C)OC1C(=O)N1CC2(CN(C(=O)c3cncs3)CC2c2nnc(C(F)(F)c3ccc(Cl)c(Cl)c3)o2)C1 (stereo not drawn) [I-179, (8-(5-((3,4-dichlorophenyl)difluoromethyl)-1,3,4-oxadiazol-2-yl)-2-(3,3-dimethyloxirane-2-carbonyl)-2,6-diazaspiro[3.4]octan-6-yl)(thiazol-5-yl)methanone] | 5 to 10 µM | > 10 µM
24 | O=C(c1onc2ccccc12)N1CC(c2nnc(C(F)(F)c3ccc(Cl)c(Cl)c3)o2)C2(C1)CN(C(=O)[C@H]1CC1(F)F)C2 (single isomer, unassigned) [I-151 1st] | > 10 µM | > 10 µM
25 | Cc1nc(C)c(C(=O)N2CC(c3nnc(C(F)(F)c4ccc(Cl)c(Cl)c4)o3)C3(C2)CN(C(=O)[C@H]2CC2(F)F)C3)s1 (stereo partly drawn) [I-103, (8-(5-((3,4-dichlorophenyl)difluoromethyl)-1,3,4-oxadiazol-2-yl)-2-((R)-2,2-difluorocyclopropane-1-carbonyl)-2,6-diazaspiro[3.4]octan-6-yl)(2,4-dimethylthiazol-5-yl)methanone] | > 10 µM | > 10 µM
26 | Cc1cc(C)n(C(C)c2nnc(C3CN(C(=O)c4cnn(Cc5ccccc5)c4)CC34CN(C(=O)[C@H]3CC3(C)C)C4)o2)n1 (stereo partly drawn) [I-18] | > 10 µM | 0.1 to 1 µM
27 | CC(c1nc(C2CN(C(=O)c3cncs3)CC23CN(C(=O)[C@H]2CC2(C)C)C3)no1)n1cc2ccccc2n1 (stereo partly drawn) [I-75] | > 10 µM | 0.1 to 1 µM
28 | CC1(C)C[C@@H]1C(=O)N1CC2(CN(C(=O)c3ncccn3)CC2c2nnc(C(F)(F)c3ccc(Cl)c(Cl)c3)o2)C1 (stereo partly drawn) [I-46] | > 10 µM | > 10 µM
29 | CC1(C)C[C@@H]1C(=O)N1CC2(CN(C(=O)c3cncs3)CC2c2cn(Cc3ccc(C4(C(F)(F)F)CC4)cc3)nn2)C1 (stereo partly drawn) [I-194] | > 10 µM | 0.1 to 1 µM
30 | CC1(C)C[C@@H]1C(=O)N1CC2(CN(C(=O)c3cncs3)CC2c2nnc(Cc3cc4ccccc4[nH]3)o2)C1 (stereo partly drawn) [I-26] | > 10 µM | 1 to 10 µM
31 | CC1(C)C[C@@H]1C(=O)N1CC2(CN(C(=O)c3cncs3)CC2c2nnc(C3(c4cccc(C5CCOCC5)n4)COC3)o2)C1 (stereo partly drawn) [I-97] | > 10 µM | 0.1 to 1 µM
32 | O=C(c1cncs1)N1CC(c2nnc(Cc3cccc(C4CCOCC4)n3)o2)C2(C1)CN(c1ncco1)C2 (stereo not drawn) [I-80] | > 10 µM | > 10 µM
33 | CC1(C)C[C@@H]1C(=O)N1CC2(CN(C(=O)c3cn[nH]c3)CC2c2nnc(C(F)(F)c3ccc(Cl)c(Cl)c3)o2)C1 (stereo partly drawn) [I-52] | > 10 µM | 0.1 to 1 µM
34 | CC1(C)C[C@@H]1C(=O)N1CC2(CN(C(=O)c3cncs3)CC2c2nnc(Cc3cccc4c3OCCO4)o2)C1 (stereo partly drawn) [I-33] | > 10 µM | 1 to 10 µM
35 | O=C(c1cncs1)N1CC(c2nnc(C(F)(F)c3ccc(Cl)c(Cl)c3)o2)C2(C1)CN(c1ccccn1)C2 (stereo not drawn) [I-184] | > 10 µM | > 10 µM
36 | CC1(C)C[C@@H]1C(=O)N1CC2(CN(C(=O)c3cncnc3)CC2c2nnc(C(F)(F)c3ccc(Cl)c(Cl)c3)o2)C1 (stereo partly drawn) [I-56] | > 10 µM | 1 to 10 µM
37 | CC1(C)C[C@@H]1C(=O)N1CC2(CN(C(=O)c3cncs3)CC2c2cn(Cc3cccc(C(F)(F)F)c3)nn2)C1 (stereo partly drawn) [I-195] | > 10 µM | 1 to 10 µM
38 | CC(=O)N1CC(c2nnc(C(F)(F)c3ccc(Cl)c(Cl)c3)o2)C2(C1)CN(C(C)=O)C2 (stereo not drawn) [I-204] | > 10 µM | > 10 µM
39 | CC1(C)C[C@@H]1C(=O)N1CC2(CN(C(=O)c3cncs3)CC2c2ncc(Cc3ccc(C(F)(F)F)c(Cl)c3)o2)C1 (stereo partly drawn) [I-201, (8-(5-(3-chloro-4-(trifluoromethyl)benzyl)oxazol-2-yl)-2-((S)-2,2-dimethylcyclopropane-1-carbonyl)-2,6-diazaspiro[3.4]octan-6-yl)(thiazol-5-yl)methanone] | 5 to 10 µM | 0.1 to 1 µM

From patent US20260151375A1, “CDK2 INHIBITORS AND METHODS OF USING THE SAME” (Cedilla Therapeutics, Inc., priority 2022, published 2026)
